Measurements from article PMC6030240 (Molecules and Cells, 2018).
Where two headings read alike, the source gives them in different places.

Assays:
[1] = target: T1, Spleen tyrosine kinase (SYK) (Homo sapiens, UniProt P43405); test: co-crystal structure at […] Å; type: biochemical
[2] = target: T1, Spleen tyrosine kinase (SYK); test: co-crystal structure at […] Å; type: biochemical; remark: listed apart in the source

SMILES | IC50 [1] [nM] | IC50 [2] [nM]
Cn1ncc2cc(Nc3nc(N4CCC(O)CC4)nc4cc[nH]c(=O)c34)ccc21 [SKI-G-618, 2-(4-hydroxypiperidin-1-yl)-4-((1-methyl-1H-indazol-5-yl)amino)pyrido[4,3-d]pyrimidin-5(6H)-one] | 17.7 | –
CS(=O)(=O)c1ccc(Nc2nc(N[C@H]3CCCC[C@@H]3N)nc3cc[nH]c(=O)c23)cc1 [SKI-O-85, (1S,2S)-2-((4-((4-(methylsulfonyl)phenyl)amino)-5-oxo-5,6-dihydropyrido[4,3-d]pyrimidin-2-yl)amino)cyclohexan-1-aminium] | – | 211
